Structures can show the parent of a compound that is named as a salt.
How the values were obtained:
human D1 receptor = target: T1, human D1 receptor (Homo sapiens, UniProt P21728); test: Adenylate cyclase activity (cAMP stimulation in HEK-D1 cells); format: cell-based; conditions: read-out: IA (relative intrinsic activity to dopamine)
T1 construct: expressed in transfected cells; host or cells: HEK-D1 cells (HEK cells expressing the human D1 clone)
Procedure: Adenylate cyclase activity: Human D1 receptor.
The interaction of dopamine or a dopamine D-1 receptor agonist with the D-1 receptor causes a dose-dependent increase in the adenylate cyclase-catalyzed conversion of adenosine triphosphate (ATP) to cyclic adenosine monophosphate (cAMP). The functional activity of the compounds of the invention was determined by assaying their ability to either stimulate the enzyme adenylate cyclase to produce cAMP (agonist activity). Assays were conducted in 24-well or 48-well tissue culture plates. The assay buffer consisted of DPBS containing CaCl2 and MgCl2, 0.1% glucose, 0.5 mM IBMX, 0.004% ascorbic acid and 10 μM propranolol to inhibit potential cross activation of the endogenous β-receptor. Culture medium was removed, and HEK-D1 cell was washed once with assay buffer, and 400 μl fresh assay buffer was added for 10 min. Next, 100 μl of dopamine or dopamine agonist, dissolved in assay buffer, was added to the cell for an additional 15 min, and incubations were terminated with 500 μL 0.2N HCl. cAMP contents were determined by RIA using the automated Attoflo™ system (Rockville, Md.).
The hD1c ED50 level is a measure of the potency, showing the concentration (nM) at which a 50% response is obtained; a lower number indicates a higher potency. High intrinsic activity (IA) indicates the activity of the compound as a dopamine agonist.

schizophrenia = conditions: cited from earlier work; for antipsychotic effect: low doses
[1] = test system: neural feeding mechanisms; conditions: rats; cited from earlier work
dopamine receptor = conditions: cited from earlier work
[2] = test system: striatal dopamine receptors; test: Rotation behavior, rat rotational model (6-hydroxydopamine unilateral lesion); format: in vivo; conditions: sc, 6-hydroxydopamine-lesioned rats
Procedure: The behavioral assay used was based on the rat rotational model. Striatal dopamine was depleted by the intracranial injection of 6-hydroxydopamine, a neurotoxin which specifically destroys catecholaminergic neurons. […] This unilateral lesioning of dopamine-containing neurons causes the post-synaptic dopamine receptors to become supersensitive to dopaminergic stimulation in behavioral assays. […] Agonist activity was measured by the ability of the test compound to induce rotation.
A lower number indicates a higher potency.

Parkinson's disease = conditions: alone, some early Parkinson's disease patients; cited from earlier work
acute renal failure = conditions: in combination with diuretics, patients; cited from earlier work

T1 sequence (P21728 whole entry): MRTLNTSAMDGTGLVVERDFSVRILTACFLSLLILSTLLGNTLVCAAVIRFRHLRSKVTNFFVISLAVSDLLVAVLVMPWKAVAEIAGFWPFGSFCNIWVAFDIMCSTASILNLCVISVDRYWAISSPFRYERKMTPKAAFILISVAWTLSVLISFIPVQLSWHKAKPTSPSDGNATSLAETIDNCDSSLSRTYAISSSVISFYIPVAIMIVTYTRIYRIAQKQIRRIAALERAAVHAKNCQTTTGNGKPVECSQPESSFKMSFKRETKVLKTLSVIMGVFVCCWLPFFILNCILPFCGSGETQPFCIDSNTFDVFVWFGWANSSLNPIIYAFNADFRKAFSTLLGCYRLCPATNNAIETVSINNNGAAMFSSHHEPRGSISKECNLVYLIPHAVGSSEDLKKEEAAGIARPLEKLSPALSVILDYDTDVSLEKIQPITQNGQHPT

## COc1ccc2c(n1)CN[C@H]1CCc3cc(O)c(O)cc3[C@H]21 (relative stereo) [Example 4, trans-4,6-diaza-5,6,6a,7,8,12b-hexahydro-3-methoxybenzo[c]phenanthrene 10,11-diol dihydrobromide]
Human D1 receptor
  Emax: 114%

## Oc1cc2c(cc1O)C(c1ccccc1)CNCC2 (stereo not shown) [SKF 38393]
schizophrenia; in conjunction with haloperidol
  effect on side-effects of haloperidol: ameliorate the undesired side-effects of the haloperidol
[1]
  effect on food intake: decrease food intake by rats

## Oc1cc2c(cc1O)[C@H]1c3ccccc3CN[C@@H]1CC2 (racemic) [dihydrexidine]
Dopamine receptor
  dopamine agonist activity: active as a dopamine agonist

## Oc1cc2c(cc1O)[C@@H]1c3cnccc3CN[C@H]1CC2 (relative stereo) [Example 11, trans-2,6-diaza-5,6,6a,7,8,12b-hexahydrobenzo[c]phenanthrene 10,11-diol dihydrobromide]
Human D1 receptor
  Emax: 81%

## Oc1cc2c(cc1O)[C@@H]1c3ccc(F)nc3CN[C@H]1CC2 (relative stereo) [Example 5, trans-4,6-diaza-3-fluoro-5,6,6a,7,8,12 b-hexahydrobenzo[c]phenanthrene 10,11-diol dihydrobromide]
Human D1 receptor
  Emax: 141%
[2]
  Rotation behavior EC50: 0.82 µmol/kg

## Cc1cncc2c1CN[C@H]1CCc3cc(O)c(O)cc3[C@H]21 (relative stereo) [Example 14, trans-2,6-diaza-4-methyl-5,6,6a,7,8,12b-hexahydrobenzo[c]phenanthrene 10,11-diol dihydrobromide]
Human D1 receptor
  Emax: 75%

## Cc1ccc2c(n1)CN[C@H]1CCc3cc(O)c(O)cc3[C@H]21 (relative stereo) [Example 2, trans-4,6-diaza-5,6,6a,7,8,12b-hexahydro-3-methylbenzo[c]phenanthrene 10,11-diol dihydrobromide]
Human D1 receptor
  Emax: 121%

## Oc1cc2c(cc1O)[C@@H]1c3cc4c(nc3CN[C@H]1CC2)CCCC4 (relative stereo) [Example 10, trans-4,6-diaza-5,6,6a,7,8,12b-hexahydro-2,3-cyclohexenobenzo[c]phenanthrene 10,11-diol dihydrobromide]
Human D1 receptor
  Emax: 136%

## CCCc1ccc2c(n1)CN[C@H]1CCc3cc(O)c(O)cc3[C@H]21 (relative stereo) [Example 3, trans-4,6-diaza-5,6,6a,7,8,12b-hexahydro-3-propylbenzo[c]phenanthrene 10,11-diol dihydrobromide]
Human D1 receptor
  Emax: 116%
[2]
  Rotation behavior EC50: 0.14 µmol/kg

## CCCCc1cnc2c(c1)[C@H]1c3cc(O)c(O)cc3CC[C@@H]1NC2 (relative stereo) [Example 8, trans-4,6-diaza-5,6,6a,7,8,12b-hexahydro-2-butylbenzo[c]phenanthrene 10,11-diol dihydrobromide]
Human D1 receptor
  Emax: 118%

## CN1CCc2cccc3c2[C@H]1Cc1ccc(O)c(O)c1-3 [apomorphine]
schizophrenia
  antipsychotic effect: produce antipsychotic effects

## CC(C)C[C@H]1C(=O)N2CCC[C@H]2[C@]2(O)O[C@](NC(=O)[C@@H]3C=C4c5cccc6[nH]c(Br)c(c56)C[C@H]4N(C)C3)(C(C)C)C(=O)N12 [Bromocriptine]
Parkinson's disease
  effect on Parkinson's disease symptoms: relieve Parkinson's disease symptoms in some early Parkinson's disease patients
schizophrenia
  antipsychotic effect: produce antipsychotic effects

## Oc1cc2c(cc1O)[C@@H]1c3ccncc3CN[C@H]1CC2 (relative stereo) [Example 13, trans-3,6-diaza-5,6,6a,7,8,12b-hexahydrobenzo[c]phenanthrene 10,11-diol dihydrobromide]
Human D1 receptor
  Emax: 131%

## Oc1cc2c(cc1O)[C@@H]1c3cccnc3CN[C@H]1CC2 (relative stereo) [Example 1, trans-4,6-diaza-5,6,6a,7,8,12b-hexahydrobenzo[c]phenanthrene 10,11-diol dihydrobromide]
Human D1 receptor
  Emax: 125%

## Cc1cnc2c(c1)[C@H]1c3cc(O)c(O)cc3CC[C@@H]1NC2 (relative stereo) [Example 7, trans-4,6-diaza-5,6,6a,7,8,12b-hexahydro-2-methylbenzo[c]phenanthrene 10,11-diol dihydrobromide]
Human D1 receptor
  Emax: 156%

## Cc1cc2c(nc1C)CN[C@H]1CCc3cc(O)c(O)cc3[C@H]21 (relative stereo) [Example 9, trans-4,6 diaza-5,6,6a,7,8,12b-hexahdro-2,3-dimethylbenzo[c]phenanthrene 10,11-diol dihydrobromide]
Human D1 receptor
  Emax: 134%

## NCCc1ccc(O)c(O)c1 [dopamine]
Acute renal failure
  effect on acute renal failure: reverse radio-contrast media-induced acute renal failure

## Oc1cc2c(cc1O)[C@@H]1c3cncc(F)c3CN[C@H]1CC2 (relative stereo) [Example 12, trans-2,6-diaza-4-fluoro-5,6,6a,7,8,12b-hexahydrobenzo[c]phenanthrene 10,11-diol dihydrobromide]
Human D1 receptor
  Emax: 126%

— patent publication US5668141A, “Trans-2,6-,3,6-and 4,6-diaza-5,6,6a,7,8,12b-hexahydrobenzo[c]phenanthrene compounds as dopamine agonists” (Abbott Laboratories, priority 1996, dated 1997)
